This is an account of results in patent publication US20250179022A1, “COMPOUND USED AS TYK2 INHIBITOR, PREPARATION METHOD THEREFOR, AND PHARMACEUTICAL USE THEREOF” (SHANGHAI ZHIGEN PHARMACEUTICAL & TECHNOLOGY CO. LTD., priority 2022, published 2025).

pIC50: −log10 of the molar value. Where only a bound is given, the exact number is not on record here.

Common to all, as to format: cell-based
In one test the target is T1, hERG potassium channel (Homo sapiens, UniProt Q12809).
T1 construct: expressed in transfected cells; host or cells: CHO
Briefly: hERG potassium channel inhibition assay (CHO-hERG cells, Qpatch automated patch clamp). As to conditions: highest tested concentration 40 μM. As for the experimental part:
4.1 Purpose of the Experiment The blocking effect of the compounds in the present invention on hERG potassium currents on stable cell lines transfected with hERG potassium channels was tested by applying a fully automated membrane clamp.
CHO-hERG cells were cultured in 175 cm^2 culture flasks, and when the cell density grew to 60-80%, the culture medium was removed and washed with 7 ml of PBS (Phosphate Buffered Saline), and then 3 ml of Detachin was added for digestion.
When digestion was completed, 7 ml of culture medium was added to neutralize the cells, then centrifuged, the supernatant was removed, and 5 ml of culture medium was added to resuspend the cells to ensure that the cell density is 2-5×10^6/ml.
The single-cell high-impedance sealing and whole-cell pattern formation processes were all automated with the Qpatch instrument. After obtaining the recording pattern, the cells were clamped at −80 mV, and a −50 mV preconditioning voltage was given for 50 ms prior to giving a +40 mV depolarizing stimulus for 5 s. The cell was then repolarized to −50 mV to be maintained for 5 s and then returned to −80 mV. This voltage stimulus was applied every 15 s. […]
The experimental data was analyzed by XLFit software.

The next test has as its target T2, JAK3 (Homo sapiens, UniProt P52333, cells depend on it, form not given).
T2 construct: fused on or other part: N-terminal part of TEL (ETV6) as oligomerising partner; P41212 (Transcription factor ETV6)
Put plainly: JAK family kinase selectivity assay, Ba/F3-TEL-JAK3 cell proliferation. As to conditions: Ba/F3-TEL-JAK3, 72 h; read-out: Ba/F3 Cell IC50 JAK3. The source says:
(§1) There are four kinases in the JAK family, respectively TYK2, JAK1, JAK2 and JAK3. JAK family kinase genes were introduced into the wild-type murine B lymphocytes (BaF3), and four BaF3 engineered cell lines were constructed respectively (Ba/F3-FL-TYK2-E957D, Ba/F3-TEL-JAK1, Ba/F3-TEL-JAK2, Ba/F3-TEL-JAK3). The growth and proliferation of these engineered cell lines were not dependent on IL-3, but on exogenously transferred JAK family kinases.
In this experiment, the inhibitory effects of the compounds on the proliferation of four cell types, Ba/F3-FL-TYK2-E957D, Ba/F3-TEL-JAK1, Ba/F3-TEL-JAK2, and Ba/F3-TEL-JAK3 were tested, and apoptosis was detected, and the IC50 values were calculated. The inhibitory activities of the compounds against TYK2, JAK1, JAK2, and JAK3 kinases were evaluated based on the IC50 value, thus assessing the JAK family kinase selectivity of the compounds.
The tested compounds, powder and stored at room temperature, were prepared into 10 mM stock solution with DMSO and stored at −20° C. away from light for use.
Compounds were formulated into dilute solutions which was 1000 times of the final concentration. The compound was prepared into 20-times of final concentration by diluting the compound with culture medium. 2 ul of 1000-times compound was added per well to 98 ul of culture medium.
Cells (provided by Sundia Pharmaceutical Technology (Shanghai) Co., Ltd.) were resuspended and counted using an automated cell counter. The cell suspension was diluted to the desired density based on BaF3 seeding density of 2000 cells per well. Each well was plated with 95 ul of cells and incubated at 37° C. for stable equilibrium. […]
(§2) The cell plate was equilibrated to room temperature. […] Detected with SpectraMax Paradigm.
(§3) • (1) IC50 was calculated using GraphPad Prism 5. • (2) % Inh=(Max signal-Compound signal)/(Max signal-Min signal)×100. • (3) Max signal was the positive control well with only the same volume of DMSO as the compound. • (4) Min signal was the negative control well with only the culture medium.

Another test concerns the target T3, JAK1 (Homo sapiens, UniProt P23458, cells depend on it, form not given).
T3 construct: fused on or other part: N-terminal part of TEL (ETV6) as oligomerising partner; P41212 (Transcription factor ETV6)
Put plainly: JAK family kinase selectivity assay, Ba/F3-TEL-JAK1 cell proliferation. The conditions noted are these: Ba/F3-TEL-JAK1, 72 h; read-out: Ba/F3 Cell IC50 JAK1.
From the text: as §1
In this experiment, the inhibitory effects of the compounds on the proliferation of four cell types, Ba/F3-FL-TYK2-E957D, Ba/F3-TEL-JAK1, Ba/F3-TEL-JAK2, and Ba/F3-TEL-JAK3 were tested, and apoptosis was detected, and the IC50 values were calculated. The inhibitory activities of the compounds against TYK2, JAK1, JAK2, and JAK3 kinases were evaluated based on the IC50 value, thus assessing the JAK family kinase selectivity of the compounds. […]
Cells (provided by Sundia Pharmaceutical Technology (Shanghai) Co., Ltd.) were resuspended and counted using an automated cell counter. […]
as §2, §3

T1 sequence (Q12809 whole entry): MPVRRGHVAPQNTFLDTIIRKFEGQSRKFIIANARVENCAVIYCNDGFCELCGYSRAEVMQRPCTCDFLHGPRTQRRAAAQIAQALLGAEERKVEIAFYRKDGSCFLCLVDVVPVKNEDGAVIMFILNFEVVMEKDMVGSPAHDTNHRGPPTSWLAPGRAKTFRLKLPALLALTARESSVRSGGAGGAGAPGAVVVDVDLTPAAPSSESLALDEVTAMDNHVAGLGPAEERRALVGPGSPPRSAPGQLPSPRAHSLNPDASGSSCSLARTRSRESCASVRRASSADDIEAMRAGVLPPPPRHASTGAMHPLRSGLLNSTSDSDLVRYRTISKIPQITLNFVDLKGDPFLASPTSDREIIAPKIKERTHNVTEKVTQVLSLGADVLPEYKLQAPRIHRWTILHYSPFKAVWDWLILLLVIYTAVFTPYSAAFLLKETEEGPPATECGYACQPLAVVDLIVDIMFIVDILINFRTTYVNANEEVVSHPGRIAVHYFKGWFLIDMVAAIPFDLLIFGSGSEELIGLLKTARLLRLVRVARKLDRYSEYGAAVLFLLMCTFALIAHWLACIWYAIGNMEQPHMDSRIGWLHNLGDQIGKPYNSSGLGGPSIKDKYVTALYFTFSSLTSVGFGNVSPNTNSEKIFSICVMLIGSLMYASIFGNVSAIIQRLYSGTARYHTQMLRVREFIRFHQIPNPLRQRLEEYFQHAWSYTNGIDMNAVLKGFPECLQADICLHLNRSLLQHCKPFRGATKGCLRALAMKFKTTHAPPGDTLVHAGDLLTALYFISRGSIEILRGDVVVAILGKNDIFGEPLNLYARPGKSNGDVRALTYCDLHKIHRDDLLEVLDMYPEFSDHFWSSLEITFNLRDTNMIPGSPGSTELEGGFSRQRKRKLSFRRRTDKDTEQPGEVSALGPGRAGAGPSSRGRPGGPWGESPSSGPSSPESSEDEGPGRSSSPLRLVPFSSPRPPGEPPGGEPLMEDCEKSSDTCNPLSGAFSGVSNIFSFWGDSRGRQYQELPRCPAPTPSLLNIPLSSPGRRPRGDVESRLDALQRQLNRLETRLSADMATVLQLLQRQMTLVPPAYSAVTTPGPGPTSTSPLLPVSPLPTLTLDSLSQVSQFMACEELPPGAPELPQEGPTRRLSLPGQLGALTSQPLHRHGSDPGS
T2 sequence (P52333 822-1111 limits assumed, change not shown): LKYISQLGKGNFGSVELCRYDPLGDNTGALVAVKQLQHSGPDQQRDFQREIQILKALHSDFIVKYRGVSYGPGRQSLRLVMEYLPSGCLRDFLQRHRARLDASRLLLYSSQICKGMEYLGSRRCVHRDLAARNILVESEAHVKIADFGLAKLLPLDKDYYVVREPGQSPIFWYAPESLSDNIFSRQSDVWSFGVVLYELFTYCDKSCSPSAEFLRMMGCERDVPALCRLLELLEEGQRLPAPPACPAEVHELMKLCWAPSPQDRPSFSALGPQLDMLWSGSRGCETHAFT
T3 sequence (P23458 875-1154 limits assumed, change not shown): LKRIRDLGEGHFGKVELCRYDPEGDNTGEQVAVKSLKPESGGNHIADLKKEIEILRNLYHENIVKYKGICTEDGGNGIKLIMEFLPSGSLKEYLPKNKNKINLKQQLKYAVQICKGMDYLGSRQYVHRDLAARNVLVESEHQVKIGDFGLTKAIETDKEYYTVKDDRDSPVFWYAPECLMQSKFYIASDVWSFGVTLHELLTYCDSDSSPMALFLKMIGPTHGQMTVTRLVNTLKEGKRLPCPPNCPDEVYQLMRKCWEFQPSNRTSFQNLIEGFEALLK

On to `[2H]C([2H])([2H])NC(=O)c1nnc(NC(=O)C2CC2)cc1Nc1nc(N)c(Cl)cc1[S@@](C)(=O)=NC` [Example 28], for which the negative-log IC50 (pIC50) on hERG potassium channel was < 4.52. Further, the GI50 on JAK3 and at JAK1 was > 1 µM throughout.

Regarding `[2H]C([2H])([2H])NC(=O)c1nnc(NC(=O)C2CC2)cc1Nc1nc(N)c(Cl)cc1[S@](C)(=N)=O` [Example 29, (R)-4-((6-amino-5-chloro-3-(S-methylsulfoximino)pyridin-2-yl)amino)-6-(cyclopropylcarboxamido)-N-(methyl-d3)pyridazine-3-carboxamide], at hERG potassium channel, the pIC50 is < 4.52. The GI50 at JAK3 and at JAK1 was > 1 µM in each case.
